Results on 20 compounds are retold here after patent US20110230471A1, “BENZONAPHTYRIDINE COMPOUNDS AS INHIBITORS OF AUTOTAXIN” (MERCK PATENT GESELLSCHAFT MIT BESCHRANKTER HAFTUNG, priority 2008, published 2011).

The assay concerns the target T1, recombinant autotaxin (Homo sapiens, UniProt Q13822).
T1 construct: made in house; host or cells: Hi5 insect cells (baculovirus)
The assay is described as follows: Autotaxin test (enzyme test), Amplex Red. Format: biochemical. The following applies: Autotaxin inhibition (enzyme test), TABLE 2 (B compounds); substrate LPC 75 μM. The protocol:
The autotaxin activity is measured indirectly using Amplex Red reagent. Amplex Red is measured here as fluorogenic indicator for the H2O2 formed. In detail, autotaxin converts the substrate lysophosphatidylcholine (LPC) into phosphocholine and lysophosphatidylic acid (LPA). After this reaction, the phosphocholine is reacted with alkaline phosphatase to give inorganic phosphate and choline. In the next step, choline is oxidised by choline oxidase to give betaine, with formation of H2O2. H2O2 reacts with Amplex Red reagent in the presence of peroxidase (horseradish peroxidase) in a 1:1 stoichiometry and forms the highly fluorescent resorufin. The fluorescence is measured in a reaction-dependent kinetic mode in order that fluorescent signals from possible other fluorescent substances which are not involved in the reaction can be corrected out.
1.5 μl of a standard solution or of the test substances (substances with the name A(n))in individual concentrations dissolved in 20 mM Hepes pH 7.2 with a maximum of 7.7% of DMSO are pre-incubated together with 10 μl (16 ng) of highly purified recombinant autotaxin in a black microtitre plate provided with 384 wells at 22° C. for 30 min. The reaction is then initiated by addition of 5 μl of L-α-lysophosphatidylcholine (LPC), where the final concentration of LPC is 75 μM. The mixture is incubated at 37° C. for 90 min. After the incubation, Amplex Red reagent, peroxidase (horseradish peroxidase) and choline oxidase is added, and the fluorescence is immediately measured at 612 nm with excitation of 485 nm in a “Tecan Ultra multimode” reader. The activity of autotaxin is calculated indirectly via detection of the H2O2 formed.
• Microtitre plate: PS microplate, 384 wells, small volume, black Corning, Cat#3677 • Protein: recombinant autotaxin (Baculovirale Hi5 Expression) • Substrate: L-α-lysophosphatidylcholine (chicken egg)); Avanti Polar Lipids # 830071 P • Standard: C14 LPA, Avanti Polar Lipids, Cat# 857120P • Detection reagent: Amplex Red reagent; Invitrogen # A12222; dissolved in 1.923 ml of DMSO peroxidase type VI-A (horseradish) from Sigma # P6782; dissolved in 7.45 ml of test buffer, choline oxidase; Sigma # C5896; dissolved in 2.47 ml of test buffer • Detection reagent mix: 1:100 dilution of Amplex Red reagent in test buffer • Test buffer: 200 mM Tris HCl, Merck, Cat # 1.08219, pH 7.9, 0.1% of BSA, lipid-free, Roche Cat#775835
As usually defined, the IC50 is the midpoint of a concentration-inhibition curve. For `COc1ccc(Cl)cc1NCCN1CCc2nc3ccccc3c(C(=O)N3CCN(CCO)CC3)c2C1` [Compound B14, {2-[2-(5-Chloro-2-methoxyphenylamino)ethyl]-1,2,3,4-tetrahydrobenzo-[b][1,6]naphthyridin-10-yl}-[4-(2-hydroxyethyl)piperazin-1-yl]methanone], the half-maximal inhibitory concentration (IC50) was greater than 1000 nM.
As for `CSc1ccc(Cl)cc1NC(=O)CN1CCc2nc3ccccc3c(C(=O)N3CCN(CCO)CC3)c2C1` [Compound B17, N-(5-Chloro-2-methylsulfanylphenyl)-2-{10-[4-(2-hydroxyethyl)piperazine-1-carbonyl]-3,4-dihydro-1H-benzo[b][1,6]naphthyridin-2-yl}acetamide], the figure is greater than 1000 nM; as for `COc1ccc(Cl)cc1-c1nc(CN2CCc3nc4ccccc4c(C(=O)NC4CCN(C)CC4)c3C2)no1` [Compound B20, N-(1-Methylpiperidin-4-yl)-2-[5-(5-chloro-2-methoxyphenyl)-1,2,4-oxadiazol-3-ylmethyl]-1,2,3,4-tetrahydrobenzo[b][1,6]naphthyridine-10-carboxamide], greater than 1000 nM.
With `O=C(CN1CCc2nc3ccccc3c(C(=O)N3CCN(CCO)CC3)c2C1)Nc1cccc(-c2ccccc2)c1` [Compound B21, N-Biphenyl-3-yl-2-{10-[4-(2-hydroxyethyl)piperazine-1-carbonyl]-3,4-dihydro-1H-benzo[b][1,6]naphthyridin-2-yl}acetamide], the IC50 is greater than 1000 nM.
For `COc1ccc(Cl)cc1NC(=O)CN1CCc2nc3ccccc3c(C(=O)Nc3ccc4[nH]nnc4c3)c2C1` [Compound B22, N-(1H-Benzotriazol-5-yl)-2-[(5-chloro-2-methoxyphenylcarbamoyl)methyl]-1,2,3,4-tetrahydrobenzo[b][1,6]naphthyridine-10-carboxamide], the IC50 was in the range of 100 to 1000 nM.
As to `COc1c(F)cc(Br)cc1NC(=O)CN1CCc2nc3ccccc3c(C(=O)N3CCOCC3)c2C1` [Compound B24, N-(5-Bromo-3-fluoro-2-methoxyphenyl)-2-[10-(morpholine-4-carbonyl)-3,4-dihydro-1H-benzo[b][1,6]naphthyridin-2-yl]acetamide], the IC50 lay in the range of 100 to 1000 nM.
With `COc1ccc(Cl)cc1-c1nnc(CN2CCc3nc4ccccc4c(C(=O)NCCN(C)C)c3C2)o1` [Compound B29, N-(2-Dimethylaminoethyl)-2-[5-(5-chloro-2-methoxyphenyl)-1,3,4-oxadiazol-2-ylmethyl]-1,2,3,4-tetrahydrobenzo[b][1,6]naphthyridine-10-carboxamide], the IC50 is greater than 1000 nM.
The same measure for `COc1ccc(Cl)cc1-c1nnc(CN2CCc3nc4ccccc4c(C(=O)NCC[N+](C)(C)Cc4nnc(-c5cc(Cl)ccc5OC)o4)c3C2)o1` [Compound B30, [5-(5-Chloro-2-methoxyphenyl)-1,3,4-oxadiazol-2-ylmethyl]-[2-({2-[5-(5-chloro-2-methoxyphenyl)-1,3,4-oxadiazol-2-ylmethyl]-1,2,3,4-tetrahydrobenzo[b][1,6]naphthyridine-10-carbonyl}amino)ethyl]dimethylammonium]: greater than 1000 nM.
In the case of `COCCNC(=O)c1c2c(nc3ccccc13)CCN(Cc1nnc(-c3cc(Cl)ccc3OC)o1)C2` [Compound B31, N-(2-Methoxyethyl)-2-[5-(5-chloro-2-methoxyphenyl)-1,3,4-oxadiazol-2-yl-methyl]-1,2,3,4-tetrahydrobenzo[b][1,6]naphthyridine-10-carboxamide], the IC50 was greater than 1000 nM.
The same measure for `CCNC(=O)c1c2c(nc3ccccc13)CCN(Cc1nnc(-c3cc(Cl)ccc3OC)o1)C2` [Compound B32, N-Ethyl-2-[5-(5-chloro-2-methoxyphenyl)-1,3,4-oxadiazol-2-ylmethyl]-1,2,3,4-tetrahydrobenzo[b][1,6]naphthyridine-10-carboxamide]: greater than 1000 nM; for `COc1ccc(Cl)cc1-c1nnc(CN2CCc3nc4ccccc4c(C(=O)NC4CCN(C)CC4)c3C2)o1` [Compound B33, N-(1-Methylpiperidin-4-yl)-2-[5-(5-chloro-2-methoxyphenyl)-1,3,4-oxadiazol-2-ylmethyl]-1,2,3,4-tetrahydrobenzo[b][1,6]naphthyridine-10-carboxamide]: greater than 1000 nM; for `COc1c(F)cc(-c2ccc(N)cc2)cc1NC(=O)CN1CCc2nc3ccccc3c(C(=O)N3CCOCC3)c2C1` [Compound B35, N-(4′-Amino-5-fluoro-4-methoxybiphenyl-3-yl)-2-[10-(morpholine-4-carbonyl)-3,4-dihydro-1H-benzo[b][1,6]naphthyridin-2-yl]acetamide]: greater than 1000 nM.
The same measure for `CN1CCC(NC(=O)c2c3c(nc4ccccc24)CCN(CCC(=O)Nc2cc(Cl)ccc2N)C3)CC1` [Compound B37]: greater than 1000 nM.
On to `COc1ccc(Cl)cc1/C=C/C(=O)N1CCc2nc3ccccc3c(C(=O)NC3CCN(C)CC3)c2C1` [Compound B40, N-(1-Methylpiperidin-4-yl)-2-[(E)-3-(5-chloro-2-methoxyphenyl)acryloyl]-1,2,3,4-tetrahydrobenzo[b][1,6]naphthyridine-10-carboxamide], for which the IC50 is greater than 1000 nM.
Turning to `COc1ccc(Cl)cc1NC(=O)CN1CCc2nc3ccccc3c(C(=O)NCCF)c2C1` [Compound B42, N-(2-Fluoroethyl)-2-[(5-chloro-2-methoxyphenylcarbamoyl)methyl]-1,2,3,4-tetrahydrobenzo[b][1,6]naphthyridine-10-carboxamide], the IC50 was greater than 1000 nM.
As for `COc1ccc(Cl)cc1NC(=O)CN1CCc2nc3ccccc3c(C(=O)NC3CCOCC3)c2C1` [Compound B43, N-(Tetrahydropyran-4-yl)-2-[(5-chloro-2-methoxyphenylcarbamoyl)methyl]-1,2,3,4-tetrahydrobenzo[b][1,6]naphthyridine-10-carboxamide], the IC50 is 100 to 1000 nM.
With `COc1ccc(Cl)cc1NC(=O)CN1CCc2nc3ccccc3c(C(=O)NC3CCCNC3=O)c2C1` (centres unmarked) [Compound B47, N-(2-Oxopiperidin-3-yl)-2-[(5-chloro-2-methoxyphenylcarbamoyl)methyl]-1,2,3,4-tetrahydrobenzo[b][1,6]naphthyridine-10-carboxamide], the IC50 was 100 to 1000 nM.
For `O=C(c1c2c(nc3ccccc13)CCN(Cc1ccnc(Cl)c1)C2)N1CCOCC1` [Compound B52, [2-(2-Chloropyridin-4-ylmethyl)-1,2,3,4-tetrahydrobenzo[b][1,6]naphthyridin-10-yl]morpholin-4-ylmethanone], the half-inhibitory concentration (IC50) is greater than 1000 nM.
For the compound `COc1ccc(Cl)cc1NC(=O)CN1CCc2nc3ccccc3c(C(=O)NC3CCCNC3)c2C1` (centres unmarked) [Compound B53, N-Piperidin-3-yl-2-[(5-chloro-2-methoxyphenylcarbamoyl)methyl]-1,2,3,4-tetrahydrobenzo[b][1,6]naphthyridine-10-carboxamide], the IC50 is greater than 1000 nM.
As for `CN1CCC(NC(=O)c2c3c(nc4ccccc24)CCN(Cc2ccc4c(Cl)cc(Cl)c(O)c4n2)C3)CC1` [Compound B57, N-(1-Methylpiperidin-4-yl)-2-(5,7-dichloro-8-hydroxyquinolin-2-ylmethyl)-1,2,3,4-tetrahydrobenzo[b][1,6]naphthyridine-10-carboxamide], the IC50 was greater than 1000 nM.
